Measured values reported in patent publication US20060194874A1, “Use of propionyl l-carnitine for the preparation of a medicament for the treatment of glaucoma” (priority 2002, published 2006).

Experiments:
[1] = system: ganglionic cells of the retina and/or astrocytes of the optic nerve; experiment: In-vivo rat model of methylcellulose (MTC)-induced intraocular hypertension (experimental glaucoma): histology and TUNEL
Method: The effect of propionyl L-carnitine was evaluated in an in-vivo experimental rat model. This model of induction of programmed cell death (apoptosis) and/or necrosis of ganglionic cells of the retina and/or astrocytes of the optic nerve is described in the above-mentioned Acta Ophthalmologica Scandinavica, 1988, Supplement 27, 20-21 and Experimental Postgraduate Degree Thesis, Institute of Ophthalmology, “La Sapienza” University, Rome. Intraocular hypertension was induced by means of injecting methylcellulose (MTC) into the anterior chamber. The rats were divided into three groups: 1) untreated (blanks), 2) rats treated with 2% MTC (10 μL), and 3) rats treated with MTC and propionyl L-carnitine 0.15 mM final concentration injected into the anterior chamber. In semithin histological sections of untreated rat optic nerve (haematoxylin-eosin staining), normal longitudinal organisation of the astrocytes among the fibres was detected (FIG. 1A). In contrast, in rats treated with MTC, loss of cell organisation and the presence of necrotic astrocytes were detected (FIG. 1B).

[2] = system: patients suffering from glaucoma; experiment: Clinical trial: ocular colour Doppler ultrasonography, visual field (Octopus) and intraocular pressure; assay type: in vivo, human
Method: Ten patients suffering from glaucoma were treated with propionyl L-carnitine (DROMOS®) by mouth at a dose of 2 g/day for periods ranging from 15 to 50 days. Ocular arterial flow was studied by means of ocular colour Doppler ultrasonography. The posterior (nasal) ciliary artery, the posterior (temporal) ciliary artery, the central retinal and ophthalmic arteries were examined. Systolic and diastolic flow rates were expressed in cm/sec; the ratio (systolic—diastolic flow)/systolic flow expresses the peripheral resistance index. Visual fields before and after treatment with DROMOS® were compared.

[3] = system: 3T6 cells (murine fibroblast line); experiment: TUNEL reaction in vitro (chromatin status) in serum-deprived 3T6 cells; assay type: cell-based
Method: (§1) To assess the chromatin status (and thus the apoptosis) in serum-deprived 3T6 cells, and, in cells treated with propionyl L-carnitine, a TUNEL (terminal deoxynucleotidyl transferase-mediated dUTP-biotin end labelling) reaction was performed in vitro. TUNEL labelling is a technique that consists in the addition of nucleotides (conjugated with fluorescein) at the free 3′-OH extremities present in the fragmented DNA. This reaction is catalysed by the terminal enzyme transferase. The TUNEL technique was performed on untreated serum-deprived cells and on serum-deprived cells to which the three concentrations (0.25 mM, 0.55 mM, and 1.1 mM) of propionyl L-carnitine already used for the cell counts were administered. […] The binding of the primary antibody with its epitope to BAX was detected with a secondary antibody that exploits DAB ([…]) staining. The cells subjected to cytoimmunological localisation were deprived of serum 24 hours after plating and treated with propionyl L-carnitine at the above-mentioned concentrations. Cells grown in complete medium were used as the positive control, while the negative control was prepared with cells deprived of serum 24 hours after plating.

[4] = system: 3T6 cells (murine fibroblast line); experiment: Cell count with erythrosine stain, 3T6 cells grown in complete medium; assay type: cell-based; conditions: 3T6 cells in complete medium, count 24 hours after administration
Method: 3T6 cells (murine fibroblast line) grown in complete medium (DMEM: 10% NBS, 2% PEST and 2% glutamine) were treated with propionyl L-carnitine 24 hours after plating the cells. 48 hours after plating (24 hours after administration of the substance), a cell count was performed on the cells thus treated with an erythrosine stain that detects cells that are no longer viable (diluted 1:5 with PBS A buffer) from which the cell survival data were obtained. As controls, we used cells cultivated in complete medium on which the cell count was performed, again 24 hours after plating.

BAX = experiment: Cytoimmunological localisation of BAX (DAB staining, haematoxylin counterstain) in serum-deprived 3T6 cells; assay type: cell-based, murine
Method: as §1
Counterstaining with a nuclear dye such as haematoxylin was also performed in order to confirm the fact that the staining obtained with cytoimmunological localisation was effectively cytoplasmic. On the basis of the data reported in the literature, in fact, it is known that BAX is a cytoplasmically localised protein. […] On comparing the data obtained in the cell counts, with the TUNEL technique and with cytoimmunological localisation, an improvement can be found in cell survival after treatment with propionyl L-carnitine. This proves evident both in cells grown in complete medium and in cells grown in conditions in which apoptosis is induced as a result of serum deprivation.

[5] = system: 3T6 cells (murine fibroblast line); experiment: Cell count with erythrosine staining, serum-deprived 3T6 cells (induced apoptosis); assay type: cell-based; conditions: 0.25 mM, 0.55 mM, 1.1 mM
Method: In subsequent experiments, apoptosis was induced in 3T6 cells 24 hours after plating by means of serum deprivation, and simultaneously propionyl L-carnitine was added to the cells. Three different concentrations of the compound were used: 0.25 mM, 0.55 mM and 1.1 mM. 48 hours after plating (24 hours after administration of the substance) a cell count with erythrosine staining was performed. Cells grown in complete medium were taken as the negative control and serum-deprived cells as the positive control.

[6] = ten glaucoma patients, 2 g/day by mouth, 15 to 50 days

**Q.** What does the source list for `CCC(=O)O[C@H](CC(=O)[O-])C[N+](C)(C)C` [propionyl L-carnitine]?
**A.** organisation of astrocytes in semithin histological sections of optic nerve ([1]; rats treated with 2% MTC (10 μL) and propionyl L-carnitine 0.15 mM final concentration, injected into the anterior chamber, haematoxylin-eosin, FIG. 1C): longitudinal organisation among the fibres; necrotic cells (astrocytes) in optic nerve sections ([1]; rats treated with 2% MTC and propionyl L-carnitine 0.15 mM, anterior chamber, FIG. 1C): no necrotic cells were detected; TUNEL fluorescence (apoptotic cells) in optic nerves ([1]; rats treated with MTC and propionyl L-carnitine 0.15 mM, anterior chamber, fluorescence microscopy, FIG. 2B): the presence of TUNEL fluorescence was not observed; Visual field (Octopus) after treatment, MD ([2]; Patient 1, OS, 30 days of treatment, before treatment 2): 5.6; Visual field (Octopus) after treatment, MS ([2]; Patient 1, OS, 30 days of treatment, before treatment 11.6): 20.2; Posterior nasal ciliary artery resistance index (R.I.) after treatment ([2]; Patient 1, SN, 30 days, before treatment 0.63): 0.66; Posterior nasal ciliary artery diastolic flow after treatment ([2]; Patient 1, SN, 30 days, before treatment 2.21): 5.75 cm/sec; Posterior nasal ciliary artery systolic flow after treatment ([2]; Patient 1, SN, 30 days, before treatment 5.96): 16.7 cm/sec; Posterior temporal ciliary artery resistance index (R.I.) after treatment ([2]; Patient 2, DX, 12 days, before treatment (SN) 0.67): 0.55; Posterior temporal ciliary artery diastolic flow after treatment ([2]; Patient 2, DX, 12 days, before treatment (SN) 1.92): 3.86 cm/sec; Posterior temporal ciliary artery systolic flow after treatment ([2]; Patient 2, DX, 12 days, before treatment (SN) 5.75): 8.65 cm/sec; Visual field (Octopus) after treatment, MD ([2]; Patient 2, OD, 12 days of treatment, before treatment 11.1): 8.4; Visual field (Octopus) after treatment, MS ([2]; Patient 2, OD, 12 days of treatment, before treatment 15.5): 16.2; visual fields ([2]; subjects with stable glaucoma, 2 g/day by mouth): improves visual fields; intraocular pressure (IOP) [2, 6]: no significant reduction in IOP; ocular arterial flows [2, 6]: increases the flows; peripheral resistance index in the sectors affected [2, 6]: reduces the resistance index; cytoprotective effect, dependence on concentration ([3]; 0.25 mM, 0.55 mM, 1.1 mM): increased with the increase in concentration; chromatin fragmentation (TUNEL fluorescence intensity) ([3]; serum-deprived 3T6 cells vs untreated serum-deprived cells, FIG. 3B): a marked reduction in chromatin fragmentation; cell growth (cell count) compared to untreated control cells [4]: an increase in cell growth; alterations of chromatin condensation (haematoxylin counterstaining) (BAX; serum-deprived 3T6 cells after treatment): tend to be reduced; BAX expression, dependence on concentration (BAX; serum-deprived 3T6 cells, 0.25 mM, 0.55 mM, 1.1 mM): proportional to the different concentrations; expression of BAX compared to untreated serum-deprived cells (BAX; serum-deprived 3T6 cells, FIG. 4B): a lower expression of BAX; cell viability compared to negative control (complete medium) [5]: still less than that obtained in the negative control; cell mortality compared to serum-deprived cells (positive control) ([5]; count 24 hours after administration): a reduction in cell mortality
